Measurements as given in patent US20120022058A1, “4,5-DIHYDRO-1H-PYRAZOLE COMPOUNDS AND THEIR PHARMACEUTICAL USES” (Pfizer Inc., priority 2009, published 2012).
pIC50: −log10 of the molar value.

The molecules below were run against T1, MR (Homo sapiens, UniProt P08235) (assay: Cell-Based Reporter Assay (Gal4 DBD-MR LBD luciferase reporter, antagonist mode)). Settings: antagonist mode vs aldosterone at EC80; transfected human liver cells (Huh7); luciferase readout; Examples 3, 6, 12 and 13 tested in analogous format with minor variations.
T1 construct: expressed in transfected cells; host or cells: Huh7 human liver cells, transient transfection
T1 sequence (P08235 726-964 limits assumed): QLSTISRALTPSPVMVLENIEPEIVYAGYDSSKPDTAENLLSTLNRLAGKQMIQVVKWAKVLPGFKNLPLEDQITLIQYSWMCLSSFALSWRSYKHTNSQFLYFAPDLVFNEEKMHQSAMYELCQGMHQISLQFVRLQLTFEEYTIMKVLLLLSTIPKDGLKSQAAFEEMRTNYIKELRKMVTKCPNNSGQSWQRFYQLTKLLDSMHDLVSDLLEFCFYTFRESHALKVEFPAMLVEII
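Further: cells co-transfected with a Gal4 response element luciferase plasmid, compound exposure overnight before lysis and luminescence counting, IC50 reflects reduced aldosterone-stimulated reporter signal.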

Structure (SMILES) | pIC50
CCOc1cc(C2=NN(c3ccc(C#N)c(C)n3)[C@@H](C3CCCC3)C2)ccc1C(=O)O [Example 41, (R)-4-(1-(5-cyano-6-methylpyridin-2-yl)-5-cyclopentyl-4,5-dihydro-1H-pyrazol-3-yl)-2-ethoxybenzoic acid] | 8.04
Cc1cc(C2=NN(c3ccc(C#N)c(C)n3)[C@@H](C3CCCC3)C2)ccc1C(N)=O [Example 24, (R)-4-(1-(5-cyano-6-methylpyridin-2-yl)-5-cyclopentyl-4,5-dihydro-1H-pyrazol-3-yl)-2-methylbenzamide] | 7.60
COC(=O)c1ccc(C2=NN(c3ccc(C#N)c(C)c3)C(C3CCCC3)C2)nc1OC (stereo not shown) [Example 1, Methyl 6-(1-(4-cyano-3-methylphenyl)-5-cyclopentyl-4,5-dihydro-1H-pyrazol-3-yl)-2-methoxynicotinate] | 7.46
COC(=O)c1cc(C2=NN(c3ccc(C#N)c(C)n3)[C@@H](C3CCCC3)C2)ccc1S(C)(=O)=O [Example 35, (R)-methyl 5-(1-(5-cyano-6-methylpyridin-2-yl)-5-cyclopentyl-4,5-dihydro-1H-pyrazol-3-yl)-2-(methylsulfonyl)benzoate] | 8.05
Cc1cc(C2=NN(c3ccc(C#N)c(C)n3)[C@@H](C3CCCC3)C2)ccc1C#N [Example 23, (R)-6-(3-(4-cyano-3-methylphenyl)-5-cyclopentyl-4,5-dihydro-1H-pyrazol-1-yl)-2-methylnicotinonitrile] | 6.95
COc1cc(C2=NN(c3ccc(C#N)c(C)n3)[C@@H](C3CCCC3)C2)ccc1C#N [Example 26, (R)-6-(3-(4-cyano-3-methoxyphenyl)-5-cyclopentyl-4,5-dihydro-1H-pyrazol-1-yl)-2-methylnicotinonitrile] | 7.07
COc1ccc(C2=NN(c3ccc(C#N)c(C)n3)[C@@H](C3CCCC3)C2)cc1C(=O)O [Example 36, (R)-5-(1-(5-cyano-6-methylpyridin-2-yl)-5-cyclopentyl-4,5-dihydro-1H-pyrazol-3-yl)-2-methoxybenzoic acid] | 6.65
COc1cc(C(=O)O)ccc1C1=NN(c2ccc(C#N)c(C)n2)[C@@H](C2CCCC2)C1 [Example 39, (R)-methyl 4-(1-(5-cyano-6-methylpyridin-2-yl)-5-cyclopentyl-4,5-dihydro-1H-pyrazol-3-yl)-3-methoxybenzoic acid] | 8.15
Cc1nc(N2N=C(c3ccc4c(c3)C(C)(C)OC(=O)N4)C[C@@H]2C2CCCC2)ccc1C#N [Example 64, (R)-6-(5-cyclopentyl-3-(4,4-dimethyl-2-oxo-2,4-dihydro-1H-benzo[d][1,3]oxazin-6-yl)-4,5-dihydro-1H-pyrazol-1-yl)-2-methylnicotinonitrile] | 8.00
COc1cc(C2=NN(c3ccc(C#N)c(C)n3)[C@@H](C3CCCC3)C2)ccc1C(N)=O [Example 27] | 8.28
COC(=O)c1ccc(C2=NN(c3ccc(C#N)c(C)n3)[C@@H](C3CCCC3)C2)cc1 [Example 14, (R)-methyl 4-(1-(5-cyano-6-methylpyridin-2-yl)-5-cyclopentyl-4,5-dihydro-1H-pyrazol-3-yl)benzoate] | < 5.65
Cc1nc(N2N=C(c3ccc4ncn(C)c(=O)c4c3)C[C@@H]2C2CCCC2)ccc1C#N [Example 18, (R)-6-(5-cyclopentyl-3-(3-methyl-4-oxo-3,4-dihydroquinazolin-6-yl)-4,5-dihydro-1H-pyrazol-1-yl)-2-methylnicotinonitrile] | 8.72
COc1cc(C2=NN(c3ccc(C#N)c(C)n3)[C@@H](C3CCCC3)C2)ccc1O [Example 52, (R)-6-(5-cyclopentyl-3-(4-hydroxy-3-methoxyphenyl)-4,5-dihydro-1H-pyrazol-1-yl)-2-methylnicotinonitrile] | 7.21
Cc1nc(N2N=C(c3ccc4c(c3)CNC(=O)N4)C[C@@H]2C2CCCC2)ccc1C#N [Example 47, (R)-6-(5-cyclopentyl-3-(2-oxo-1,2,3,4-tetrahydroquinazolin-6-yl)-4,5-dihydro-1H-pyrazol-1-yl)-2-methylnicotinonitrile] | 7.92
Cc1nc(N2N=C(c3ccc4c(c3)OCC(=O)N4)C[C@@H]2C2CCCC2)ccc1C#N [Example 46, (R)-6-(5-cyclopentyl-3-(3-oxo-3,4-dihydro-2H-benzo[b][1,4]oxazin-7-yl)-4,5-dihydro-1H-pyrazol-1-yl)-2-methylnicotinonitrile] | 7.38
Cc1nc(N2N=C(c3ccc4c(c3)NC(=O)CO4)C[C@@H]2C2CCCC2)ccc1C#N [Example 19, (R)-6-(5-cyclopentyl-3-(3-oxo-3,4-dihydro-2H-benzo[b][1,4]oxazin-6-yl)-4,5-dihydro-1H-pyrazol-1-yl)-2-methylnicotinonitrile] | 7.97
Cc1nc(N2N=C(c3cccc(OC(C)C)n3)C[C@@H]2C2CCCC2)ccc1C#N [Example 67, (R)-6-(5-cyclopentyl-3-(6-isopropoxypyridin-2-yl)-4,5-dihydro-1H-pyrazol-1-yl)-2-methylnicotinonitrile] | 6.77

Structure (SMILES) | pIC50
CCS(=O)(=O)c1ccc(C2=NN(c3ccc(C#N)c(C)n3)[C@@H](C3CCCC3)C2)cc1 [Example 22, (R)-6-(5-cyclopentyl-3-(4-(ethylsulfonyl)phenyl)-4,5-dihydro-1H-pyrazol-1-yl)-2-methylnicotinonitrile] | 7.87
COc1nc(C2=NN(c3ccc(C#N)c(C)c3)C(C3CC(F)(F)C3)C2)ccc1C(=O)O (stereo not shown) [Example 70, 6-(1-(4-cyano-3-methylphenyl)-5-(3,3-difluorocyclobutyl)-4,5-dihydro-1H-pyrazol-3-yl)-2-methoxynicotinic acid] | 6.83
CCOc1nc(C2=NN(c3ccc(C#N)c(C)n3)[C@@H](C3CCCC3)C2)ccc1C(=O)O [Example 51, (R)-6-(1-(5-cyano-6-methylpyridin-2-yl)-5-cyclopentyl-4,5-dihydro-1H-pyrazol-3-yl)-2-ethoxynicotinic acid] | 8.09
Cc1nc(N2N=C(c3ccc4c(c3)CCC(=O)N4)C[C@@H]2C2CCCC2)ccc1C#N [Example 45, (R)-6-(5-cyclopentyl-3-(2-oxo-1,2,3,4-tetrahydroquinolin-6-yl)-4,5-dihydro-1H-pyrazol-1-yl)-2-methylnicotinonitrile] | 7.69
Cc1nc(N2N=C(c3ccc(O)c(F)c3)C[C@@H]2C2CCCC2)ccc1C#N [Example 62, (R)-6-(5-cyclopentyl-3-(3-fluoro-4-hydroxyphenyl)-4,5-dihydropyrazol-1-yl)-2-methylnicotinonitrile] | 7.03
Cc1nc(N2N=C(c3ccc(S(C)(=O)=O)cc3)C[C@@H]2C2CCCC2)ccc1C#N [Example 17, (R)-6-(5-cyclopentyl-3-(4-(methylsulfonyl)phenyl)-4,5-dihydro-1H-pyrazol-1-yl)-2-methylnicotinonitrile] | 8.08
Cc1nc(N2N=C(c3ccc4c(c3)CNC4=O)C[C@@H]2C2CCCC2)ccc1C#N [Example 30, (R)-6-(5-cyclopentyl-3-(1-oxoisoindolin-5-yl)-4,5-dihydro-1H-pyrazol-1-yl)-2-methylnicotinonitrile] | 8.01
CCOc1nc(C2=NN(c3ccc(C#N)c(C)c3)[C@@H](C3CCCC3)C2)ccc1C(N)=O [Example 55, (R)-6-(1-(4-cyano-3-methylphenyl)-5-cyclopentyl-4,5-dihydro-1H-pyrazol-3-yl)-2-ethoxynicotinamide] | 8.41
CCOc1cc(C2=NN(c3ccc(C#N)c(C)n3)[C@@H](C3CCCC3)C2)ccc1C(N)=O [Example 42, (R)-4-(1-(5-cyano-6-methylpyridin-2-yl)-5-cyclopentyl-4,5-dihydro-1H-pyrazol-3-yl)-2-ethoxybenzamide] | 8.30
COC(=O)c1ccc(C2=NN(c3ccc(C#N)c(C)n3)[C@@H](C3CCCC3)C2)c(OC)c1 [Example 38, (R)-methyl 4-(1-(5-cyano-6-methylpyridin-2-yl)-5-cyclopentyl-4,5-dihydro-1H-pyrazol-3-yl)-3-methoxybenzoate] | 7.09
COc1cccc(C2=NN(c3ccc(C#N)c(C)n3)[C@@H](C3CCCC3)C2)c1 [Example 43, (R)-6-(5-cyclopentyl-3-(3-methoxyphenyl)-4,5-dihydro-1H-pyrazol-1-yl)-2-methylnicotinonitrile] | 6.89
Cc1nc(N2N=C(c3cc(F)c(O)c(F)c3)C[C@@H]2C2CCCC2)ccc1C#N [Example 61, (R)-6-(5-cyclopentyl-3-(3,5-difluoro-4-hydroxyphenyl)-4,5-dihydropyrazol-1-yl)-2-methylnicotinonitrile] | 6.68
Cc1nc(N2N=C(c3cccc(C(N)=O)c3)C[C@@H]2C2CCCC2)ccc1C#N [Example 29, (R)-3-(1-(5-cyano-6-methylpyridin-2-yl)-5-cyclopentyl-4,5-dihydro-1H-pyrazol-3-yl)benzamide] | 7.51
COc1cc(C2=NN(c3ccc(C#N)c(Cl)c3)[C@@H](C3CCCC3)C2)ncc1C(=O)O [Example 13, (R)-6-(1-(3-chloro-4-cyanophenyl)-5-cyclopentyl-4,5-dihydro-1H-pyrazol-3-yl)-4-methoxynicotinic acid] | 5.70
COC(=O)c1ccc(C2=NN(c3ccc(C#N)c(C)c3)[C@@H](C3CCCC3)C2)nc1OC [Example 2] | 8.04
Cc1nc(N2N=C(c3cccc(S(C)(=O)=O)c3)C[C@@H]2C2CCCC2)ccc1C#N [Example 21, (R)-6-(5-cyclopentyl-3-(3-(methylsulfonyl)phenyl)-4,5-dihydro-1H-pyrazol-1-yl)-2-methylnicotinonitrile] | 6.98
Cc1nc(N2N=C(c3ccc(S(N)(=O)=O)cc3)C[C@@H]2C2CCCC2)ccc1C#N [Example 20, (R)-4-(1-(5-cyano-6-methylpyridin-2-yl)-5-cyclopentyl-4,5-dihydro-1H-pyrazol-3-yl)benzenesulfonamide] | 7.71
